# Test results taken from ChEMBL document CHEMBL1136837, “Unified QSAR approach to antimicrobials. 4. Multi-target QSAR modeling and comparative multi-distance study of the giant components of antiviral drug-drug complex networks” (Bioorg Med Chem, 2009).
# Assays:
# Vaccinia virus = experiment: Antiviral activity against Vaccinia virus; type: functional, organism-based, Orthopoxvirus vaccinia; details: Orthopoxvirus vaccinia
# Simplexvirus = experiment: Antiviral activity against Herpes simplex virus; type: functional, organism-based
# Influenza A virus = experiment: Antiviral activity against influenza H1N1 virus; type: functional, organism-based
# Human betaherpesvirus 5 = experiment: Antiviral activity against Human cytomegalovirus; type: functional, organism-based; details: Human betaherpesvirus 5
# Picornaviridae = experiment: Antiviral activity against Human picornavirus; type: functional, organism-based
# Human adenovirus 2 = experiment: Antiviral activity against Human adenovirus 2; type: functional, organism-based; details: Human mastadenovirus C
# Cowpox virus = experiment: Antiviral activity against Cowpox virus; type: functional, organism-based
# Human betaherpesvirus 6 [1] = experiment: Antiviral activity against Human herpesvirus 6A; type: functional, organism-based
# Human betaherpesvirus 6 [2] = experiment: Antiviral activity against Human herpesvirus 6B; type: functional, organism-based
# Human gammaherpesvirus 4 = experiment: Antiviral activity against Epstein-Barr virus; type: functional, organism-based
# [3] = tested on: Human immunodeficiency virus 1; experiment: Antiviral activity against HIV1; type: functional, organism-based
# Hepatitis B virus = experiment: Antiviral activity against Hepatitis B virus; type: functional, organism-based
# Human alphaherpesvirus 3 = experiment: Antiviral activity against Varicella zoster virus; type: functional, organism-based
# Human alphaherpesvirus 2 = experiment: Antiviral activity against Herpes simplex virus 2; type: functional, organism-based; details: Human alphaherpesvirus 2
# [4] = tested on: Human immunodeficiency virus 2; experiment: Antiviral activity against HIV2; type: functional, organism-based
# Human alphaherpesvirus 1 = experiment: Antiviral activity against Herpes simplex virus 1; type: functional, organism-based; details: Human alphaherpesvirus 1
# [5] = tested on: Moloney murine sarcoma virus; experiment: Antiviral activity against Moloney sarcoma virus; type: functional, organism-based
# Influenza A virus H3N2 = experiment: Antiviral activity against influenza H3N2 virus; type: functional, organism-based, H3N2 subtype
# Influenza B virus = experiment: Antiviral activity against influenza B virus; type: functional, organism-based
# H2N2 subtype = experiment: Antiviral activity against influenza H2N2 virus; type: functional, organism-based; details: Influenza A virus
# Human gammaherpesvirus 8 = experiment: Antiviral activity against Human herpesvirus 8; type: functional, organism-based
# Human rhinovirus sp. = experiment: Antiviral activity against Human rhinovirus; type: functional, organism-based
# [6] = tested on: unidentified influenza virus; experiment: Antiviral activity against influenza virus; type: functional, organism-based
compound,measurement,setting,value
CCCCCCCCCCCCCCCCCCOCCOP(=O)(O)CO[C@H](CO)Cn1ccc(N)nc1=O,IC50,Vaccinia virus,0.24 µM
same,IC50,Simplexvirus,0.001 µM
O=C(NCc1ccc(Cl)cc1)c1cnc2ccc(CCCO)cc2c1O,IC50,Simplexvirus,11 µM
CCC(CC)C(NC(C)=O)C1CC(C(=O)O)CC1NC(=N)N (centres undefined),IC50,Influenza A virus,640 nM
Nc1ncnc2c1c(Br)cn2COC(CO)CO,IC50,Simplexvirus,1.8 µM
same,IC50,Human betaherpesvirus 5,1.5 µM
Nc1nc2ccc(/C(=N/Nc3ccccc3)c3ccccc3)nn2c1-c1ccc(F)cc1,IC50,Picornaviridae,10000 nM
Nc1ncnc2c1ncn2C[C@@H](CO)OCP(=O)(O)O,IC50,Human adenovirus 2,0.63 µM
same,IC50,Cowpox virus,5 µM
same,IC50,Vaccinia virus,3.5 µM
O[C@@H]1[C@H](O)[C@H](O)CO[C@H]1n1c(Br)nc2cc(Cl)c(Cl)cc21,IC50,Human betaherpesvirus 6 [1],125 µM
same,IC50,Human betaherpesvirus 6 [2],95 µM
Cc1cn(/C=C2/CC2(F)CO)c(=O)[nH]c1=O (centres undefined),IC50,Human gammaherpesvirus 4,51.7 µM
same,IC50,[3],100000 nM
same,IC50,Hepatitis B virus,20 µM
same,IC50,Human alphaherpesvirus 3,620 nM
Cc1cn(/C=C2\CC2(F)CO)c(=O)[nH]c1=O (centres undefined),IC50,Human gammaherpesvirus 4,20 µM
same,IC50,[3],100000 nM
same,IC50,Hepatitis B virus,20 µM
same,IC50,Human alphaherpesvirus 3,442000 nM
Nc1nc(OCCOCP(=O)(O)O)cc(OCCOCP(=O)(O)O)n1,IC50,Human alphaherpesvirus 2,0.993 nM
same,IC50,[4],0.199 nM
same,IC50,[3],0.141 nM
same,IC50,Human alphaherpesvirus 1,0.596 nM
same,IC50,Human alphaherpesvirus 3,0.124 nM
same,IC50,[5],0.107 nM
Nc1ccn([C@H]2CC[C@@H](CO)O2)c(=O)n1 [ZALCITABINE],IC50,Human adenovirus 2,3.3 µM
NC12CC3CC(CC(C3)C1)C2 [AMANTADINE],IC50,Influenza A virus,50000 nM
same,IC50,Influenza A virus H3N2,630 nM
same,IC50,Influenza B virus,50 µM
CN(C)c1cc(OCCOCP(=O)(O)O)nc(N)n1,IC50,Human alphaherpesvirus 2,1.37 nM
same,IC50,[4],0.342 nM
same,IC50,[3],0.342 nM
same,IC50,Human alphaherpesvirus 1,1.37 nM
same,IC50,Human alphaherpesvirus 3,0.171 nM
same,IC50,[5],0.455 nM
Nc1nc(O)cc(NC2CC2)n1,IC50,Human alphaherpesvirus 1,2.41 nM
same,IC50,[5],0.801 nM
Nc1nc2c(ncn2/C=C2/CC2(CO)CO)c(=O)[nH]1 [FILOCICLOVIR],IC50,Human alphaherpesvirus 2,380000 nM
same,IC50,Human gammaherpesvirus 4,45 µM
same,IC50,Human alphaherpesvirus 1,380000 nM
same,IC50,Human alphaherpesvirus 3,380000 nM
CCC(CC)O[C@@H]1C=C(C(=O)O)C[C@H](N)[C@H]1NC(C)=O [OSELTAMIVIR CARBOXYLATE],IC50,H2N2 subtype,0.17 nM
same,IC50,Influenza A virus,3.9 nM
same,IC50,Influenza A virus H3N2,0.6 nM
same,IC50,Influenza B virus,0.015 µM
O=C(NCc1ccc(Cl)cc1)c1cnc2c(F)cccc2c1O,IC50,Simplexvirus,13 µM
same,IC50,Human alphaherpesvirus 3,1200 nM
same,IC50,Human betaherpesvirus 5,11 µM
OC[C@H]1O[C@@H](n2c(Br)nc3cc(Cl)c(Cl)cc32)[C@H](O)[C@@H]1O,IC50,Human betaherpesvirus 6 [1],125 µM
same,IC50,Human betaherpesvirus 6 [2],125 µM
Nc1ncnc2c1c(Br)cn2COCCO,IC50,Simplexvirus,16 µM
O=C(NCc1ccc(Cl)cc1)c1cnc2ccc(C#CCO)cc2c1O,IC50,Simplexvirus,20 µM
same,IC50,Human alphaherpesvirus 3,680 nM
Nc1cc(=O)n(CCOCP(=O)(O)O)cn1,IC50,Human alphaherpesvirus 2,1.61 nM
same,IC50,[4],0.402 nM
same,IC50,[3],0.402 nM
same,IC50,Human alphaherpesvirus 1,1.61 nM
same,IC50,Human alphaherpesvirus 3,0.201 nM
same,IC50,[5],0.554 nM
Nc1ccn([C@@H]2CS[C@H](CO)O2)c(=O)n1 [LAMIVUDINE],IC50,Human adenovirus 2,100 µM
same,IC50,Cowpox virus,436 µM
same,IC50,Vaccinia virus,436 µM
Cn1cnc2c(NCc3ccccc3)nc(NCCO)nc21 [OLOMOUCINE],IC50,Simplexvirus,100 µM
Nc1ncnc2c1ncn2/C=C1/CC1(CO)CO,IC50,Human alphaherpesvirus 2,404000 nM
same,IC50,Human gammaherpesvirus 4,166 µM
same,IC50,Human gammaherpesvirus 8,57 µM
same,IC50,Human alphaherpesvirus 1,404000 nM
same,IC50,Human alphaherpesvirus 3,404000 nM
same,IC50,Human betaherpesvirus 5,12 µM
CNC(=O)/C=C(\c1ccccc1)c1ccc2nc(NCC(=O)NC)c(-c3ccc(F)cc3)n2n1,IC50,Picornaviridae,110 nM
CCOC(=O)/C=C/[C@H](CCC(N)=O)NC(=O)[C@H](CC1CCCCC1)n1cccc(NC(=O)OCc2ccccc2)c1=O,IC50,Human rhinovirus sp.,178 nM
Nc1nc2ccc(/C(=N/O)c3ccccc3)nn2c1-c1ccccc1,IC50,Picornaviridae,40 nM
Nc1ccn(/C=C2/CC2(CO)CO)c(=O)n1,IC50,Human alphaherpesvirus 2,448000 nM
same,IC50,Human gammaherpesvirus 4,45 µM
same,IC50,Human gammaherpesvirus 8,197 µM
same,IC50,Human alphaherpesvirus 1,448000 nM
same,IC50,Human alphaherpesvirus 3,448000 nM
same,IC50,Human betaherpesvirus 5,14 µM
CNC(=O)/C=C(\c1ccc(OC)cc1)c1ccc2nc(NCC(=O)NC)c(-c3ccc(F)cc3)n2n1,IC50,Picornaviridae,600 nM
Nc1cc(SCCOCP(=O)(O)O)nc(N)n1,IC50,Human alphaherpesvirus 2,0.286 nM
same,IC50,Human alphaherpesvirus 1,0.104 nM
same,IC50,Human alphaherpesvirus 3,0.0536 nM
same,IC50,[5],607 nM
N#Cc1cn([C@@H]2O[C@H](CO)[C@@H](O)[C@@H]2F)c2ncnc(N)c12,IC50,Simplexvirus,0.47 µM
same,IC50,Human betaherpesvirus 5,0.025 µM
Cc1ccc(Cn2c(N)c(C#N)c3c(N)ncnc32)cc1,IC50,Simplexvirus,60 µM
Nc1nc2ccc(/C(=N/O)c3ccccc3)nn2c1-c1ccc(F)cc1,IC50,Picornaviridae,50 nM
CNC(=O)/C=C(\c1ccc(C)cc1)c1ccc2nc(NCC(=O)NC)c(-c3ccc(F)cc3)n2n1,IC50,Picornaviridae,230 nM
CCOC(=O)/C=C/[C@H](C[C@@H]1CCNC1=O)NC(=O)/C=C/c1ccc2c(c1)OCO2,IC50,Human rhinovirus sp.,1810 nM
COc1nc(N)nc2c1ncn2/C=C1/CC1(CO)CO,IC50,Human alphaherpesvirus 2,361000 nM
same,IC50,Human gammaherpesvirus 4,161 µM
same,IC50,Human alphaherpesvirus 1,361000 nM
same,IC50,Human alphaherpesvirus 3,3000 nM
Nc1nc(OCCOCP(=O)(O)O)cc(=O)n1CCOCP(=O)(O)O,IC50,Human alphaherpesvirus 2,0.993 nM
same,IC50,[4],0.248 nM
same,IC50,[3],0.248 nM
same,IC50,Human alphaherpesvirus 1,0.993 nM
same,IC50,Human alphaherpesvirus 3,0.124 nM
same,IC50,[5],0.266 nM
Nc1nc(NC2CC2)cc(OCCOCP(=O)(O)O)n1,IC50,Human alphaherpesvirus 2,0.263 nM
same,IC50,[3],0.329 nM
same,IC50,Human alphaherpesvirus 1,0.789 nM
same,IC50,Human alphaherpesvirus 3,0.164 nM
same,IC50,[5],0.132 nM
CCCC(CCC)C(NC(C)=O)C1CC(C(=O)O)CC1NC(=N)N (centres undefined),IC50,Influenza A virus,720 nM
O=C(O)P(=O)(O)O [FOSCARNET],IC50,Human adenovirus 2,500 µM
same,IC50,Human betaherpesvirus 5,7 µM
Nc1nc2c(ncn2/C=C2\CC2(CO)CO)c(=O)[nH]1,IC50,Human alphaherpesvirus 2,380000 nM
same,IC50,Human betaherpesvirus 6 [1],116 µM
same,IC50,Human gammaherpesvirus 4,119 µM
same,IC50,Human gammaherpesvirus 8,190 µM
same,IC50,Human betaherpesvirus 6 [2],43 µM
same,IC50,Human alphaherpesvirus 1,380000 nM
same,IC50,Human alphaherpesvirus 3,380000 nM
same,IC50,Human betaherpesvirus 5,123 µM
CCOC(=O)/C=C/[C@H](C[C@H]1CCNC1=O)NC(=O)[C@H](Cc1ccccc1)n1cccc(NC(=O)OCc2ccccc2)c1=O,IC50,Human rhinovirus sp.,469 nM
CCC(CC)[C@H](NC(C)=O)[C@@H]1[C@H](O)[C@@H](C(=O)O)C[C@H]1NC(=N)N [PERAMIVIR ANHYDROUS],IC50,[6],8.4 µM
same,IC50,Influenza A virus,200 nM
CCOC(=O)/C=C/[C@H](CCC(N)=O)NC(=O)[C@H](Cc1ccc(F)cc1)n1cccc(NC(=O)OCc2ccccc2)c1=O,IC50,Human rhinovirus sp.,14 nM
CCC(CC)C(NC(C)=O)C1C(NC(=N)N)CC(C(=O)O)C1O (centres undefined),IC50,Influenza A virus H3N2,140 nM
Nc1cc(O)nc(SCCOCP(=O)(O)O)n1,IC50,Human alphaherpesvirus 2,1.42 nM
same,IC50,[3],0.356 nM
same,IC50,Human alphaherpesvirus 1,1.42 nM
same,IC50,Human alphaherpesvirus 3,0.178 nM
same,IC50,[5],0.256 nM
N#Cc1cn([C@@H]2O[C@H](CO)[C@@H](O)[C@H]2O)c2ncnc(N)c12 [TOYOCAMYCIN],IC50,Simplexvirus,38 µM
CCOC(=O)/C=C/[C@H](C[C@@H]1CCNC1=O)NC(=O)C1=Cc2ccccc2OC1,IC50,Human rhinovirus sp.,1190 nM
Nc1nc2c(ncn2COC(CO)CO)c(=O)[nH]1 [GANCICLOVIR],IC50,Human adenovirus 2,35 µM
same,IC50,Vaccinia virus,392 µM
CCOC(=O)/C=C/[C@H](C[C@@H]1CCNC1=O)NC(=O)c1ccc2ccccc2c1,IC50,Human rhinovirus sp.,150 nM
CCOC(=O)/C=C/[C@H](C[C@@H]1CCNC1=O)NC(=O)/C=C/c1cccc(Br)c1,IC50,Human rhinovirus sp.,1400 nM
CC(C)Nc1nc2cc(Cl)c(Cl)cc2n1[C@H]1O[C@@H](CO)[C@H](O)[C@@H]1O [MARIBAVIR],IC50,Human betaherpesvirus 6 [1],125 µM
same,IC50,Human betaherpesvirus 6 [2],106 µM
Nc1nc2c(ncn2/C=C2\CC2(F)CO)c(=O)[nH]1 (centres undefined),IC50,Human gammaherpesvirus 4,20 µM
same,IC50,[3],100000 nM
same,IC50,Hepatitis B virus,20 µM
same,IC50,Human alphaherpesvirus 3,79600 nM
Nc1cc(OCCOCP(=O)(O)O)ncn1,IC50,Human alphaherpesvirus 1,6430 nM
same,IC50,[5],5220 nM
CCOC(=O)/C=C/[C@H](CCC(N)=O)NC(=O)[C@H](Cc1ccccc1)n1cccc(NC(=O)C2SCCS2)c1=O,IC50,Human rhinovirus sp.,104 nM
CCCCCCCCCCCCCCCCOCCCOP1(=O)CO[C@@H](CN2CCC(N)=NC2=O)CO1 (some centres undefined),IC50,Vaccinia virus,5.6 µM
same,IC50,Simplexvirus,0.04 µM
same,IC50,Human betaherpesvirus 5,0.04 µM
Nc1nc(N)c2ncn(/C=C3\CC3(CO)CO)c2n1,IC50,Human alphaherpesvirus 2,381000 nM
same,IC50,Human gammaherpesvirus 8,165 µM
same,IC50,Human alphaherpesvirus 1,381000 nM
same,IC50,Human alphaherpesvirus 3,39000 nM
same,IC50,Human betaherpesvirus 5,3.3 µM
